Results taken from ChEMBL document CHEMBL5154747, “Discovery of new carbonic anhydrase IX inhibitors as anticancer agents by toning the hydrophobic and hydrophilic rims of the active site to encounter the dual-tail approach” (Eur J Med Chem, 2022).

Experiments:
Carbonic anhydrase 9 = Carbonic anhydrase 9 (Homo sapiens, UniProt Q16790); experiment: Inhibition of recombinant human CA 9 preincubated for 15 mins by phenol red dye based stopped flow CO2 hydration assay
HL-60(TB) = experiment: Anticancer activity against human HL-60(TB) cells assessed as cell growth inhibition at 10 uM incubated for 48 hrs by SRB assay relative to control; type: functional; settings: read-out: GI
A549 = experiment: Anticancer activity against human A549 cells assessed as cell growth inhibition at 10 uM incubated for 48 hrs by SRB assay relative to control; type: functional; settings: read-out: GI
HOP-92 = experiment: Anticancer activity against human HOP-92 cells assessed as cell growth inhibition at 10 uM incubated for 48 hrs by SRB assay relative to control; type: functional; settings: read-out: GI
HCT-116 = experiment: Anticancer activity against human HCT-116 cells assessed as cell growth inhibition at 10 uM incubated for 48 hrs by SRB assay relative to control; type: functional; settings: read-out: GI
SF-295 = experiment: Anticancer activity against human SF-295 cells assessed as cell growth inhibition at 10 uM incubated for 48 hrs by SRB assay relative to control; type: functional; settings: read-out: GI
SNB-19 = experiment: Anticancer activity against human SNB-19 cells assessed as cell growth inhibition at 10 uM incubated for 48 hrs by SRB assay relative to control; type: functional; settings: read-out: GI
Malme-3M = experiment: Anticancer activity against human Malme-3M cells assessed as cell growth inhibition at 10 uM incubated for 48 hrs by SRB assay relative to control; type: functional; settings: read-out: GI
SK-MEL-5 = experiment: Anticancer activity against human SK-MEL-5 cells assessed as cell growth inhibition at 10 uM incubated for 48 hrs by SRB assay relative to control; type: functional; settings: read-out: GI
UACC-257 = experiment: Anticancer activity against human UACC-257 cells assessed as cell growth inhibition at 10 uM incubated for 48 hrs by SRB assay relative to control; type: functional; settings: read-out: GI
IGROV-1 = experiment: Anticancer activity against human IGROV-1 cells assessed as cell growth inhibition at 10 uM incubated for 48 hrs by SRB assay relative to control; type: functional; settings: read-out: GI
786-0 = experiment: Anticancer activity against human 786-0 cells assessed as cell growth inhibition at 10 uM incubated for 48 hrs by SRB assay relative to control; type: functional; settings: read-out: GI
CAKI-1 = experiment: Anticancer activity against human CAKI-1 cells assessed as cell growth inhibition at 10 uM incubated for 48 hrs by SRB assay relative to control; type: functional; settings: read-out: GI
SN12C = experiment: Anticancer activity against human SN12C cells assessed as cell growth inhibition at 10 uM incubated for 48 hrs by SRB assay relative to control; type: functional; settings: read-out: GI
TK-10 = experiment: Anticancer activity against human TK-10 cells assessed as cell growth inhibition at 10 uM incubated for 48 hrs by SRB assay relative to control; type: functional; settings: read-out: GI
UO-31 = experiment: Anticancer activity against human UO-31 cells assessed as cell growth inhibition at 10 uM incubated for 48 hrs by SRB assay relative to control; type: functional; settings: read-out: GI
MCF7 = experiment: Anticancer activity against human MCF7 cells assessed as cell growth inhibition at 10 uM incubated for 48 hrs by SRB assay relative to control; type: functional; settings: read-out: GI
MDA-MB-231 = experiment: Anticancer activity against human MDA-MB-231 cells assessed as cell growth inhibition at 10 uM incubated for 48 hrs by SRB assay relative to control; type: functional; settings: read-out: GI
Hs-578T = experiment: Anticancer activity against human Hs-578T cells assessed as cell growth inhibition at 10 uM incubated for 48 hrs by SRB assay relative to control; type: functional; settings: read-out: GI
OVCAR-4 = experiment: Anticancer activity against human OVCAR-4 cells assessed as cell growth inhibition at 10 uM incubated for 48 hrs by SRB assay relative to control; type: functional; settings: read-out: GI

SMILES | Ki (Carbonic anhydrase 9) [nM] | inhibition of growth at 10 µM (HL-60(TB)) [%] | inhibition of growth at 10 µM (A549) [%] | inhibition of growth at 10 µM (HOP-92) [%] | inhibition of growth at 10 µM (HCT-116) [%] | inhibition of growth at 10 µM (SF-295) [%] | inhibition of growth at 10 µM (SNB-19) [%] | inhibition of growth at 10 µM (Malme-3M) [%] | inhibition of growth at 10 µM (SK-MEL-5) [%] | inhibition of growth at 10 µM (UACC-257) [%] | inhibition of growth at 10 µM (IGROV-1) [%] | inhibition of growth at 10 µM (786-0) [%] | inhibition of growth at 10 µM (CAKI-1) [%] | inhibition of growth at 10 µM (SN12C) [%] | inhibition of growth at 10 µM (TK-10) [%] | inhibition of growth at 10 µM (UO-31) [%] | inhibition of growth at 10 µM (MCF7) [%] | inhibition of growth at 10 µM (MDA-MB-231) [%] | inhibition of growth at 10 µM (Hs-578T) [%] | inhibition of growth at 10 µM (OVCAR-4) [%]
NS(=O)(=O)c1ccc(Nc2nc(N/N=C/c3cccs3)nc(Nc3ccccc3)n2)cc1 | 255 | 29 | 11 | 44 | 74 | 23 | < 10 | 20 | 26 | < 10 | 65 | 13 | 44 | 13 | < 10 | 16 | 47 | 53 | 34 | 29
NS(=O)(=O)c1ccc(Nc2nc(N/N=C/C=C/c3ccccc3)nc(Nc3ccccc3)n2)cc1 | 233 | 61 | 30 | 16 | 70 | 55 | 51 | 49 | 59 | 20 | 63 | 62 | 53 | 51 | 13 | 60 | 84 | 52 | 60 | 50
CCCCc1nc(/C=N/Nc2nc(Nc3ccccc3)nc(Nc3ccc(S(N)(=O)=O)cc3)n2)c(Cl)[nH]1 | 259 | < 10 | < 10 | 39 | < 10 | < 10 | 69 | < 10 | 24 | < 10 | < 10 | < 10 | < 10 | < 10 | < 10 | 14 | 53 | 33 | 22 | 19
NS(=O)(=O)c1ccc(Nc2nc(N/N=C/c3ccccc3)nc(Nc3ccccc3)n2)cc1 | 30.3 | 40 | 28 | 27 | 27 | 27 | < 10 | 22 | 35 | < 10 | 38 | 33 | 27 | 20 | < 10 | 34 | 46 | 16 | 43 | 15
